Laboratory results: PMC4648258 (ACS infectious diseases, 2015)
Values after ≈ are worked out from the molar mass of the structure shown.

What was measured:
[1] = system: M. tuberculosis rKM (ATCC 35827); experiment: microbe, parasite or virus in culture; assay type: cell-based, Mycobacterium tuberculosis
[2] = system: M. tuberculosis thyA overexpression mutant; assay type: cell-based
[3] = system: M. tuberculosis rRMP (ATCC 35838); experiment: microbe, parasite or virus in culture; assay type: cell-based, Mycobacterium tuberculosis
[4] = system: M. tuberculosis rSM (ATCC 35820); experiment: microbe, parasite or virus in culture; assay type: cell-based, Mycobacterium tuberculosis
[5] = system: M. tuberculosis rINH (ATCC 35822); experiment: microbe, parasite or virus in culture; assay type: cell-based, Mycobacterium tuberculosis
[6] = system: M. tuberculosis thyX overexpression mutant; assay type: cell-based
[7] = system: M. tuberculosis rCS (cycloserine; ATCC35826); experiment: microbe, parasite or virus in culture; assay type: cell-based; settings: Mycobacterium tuberculosis
[8] = Mycobacterium tuberculosis, ATCC35827
[9] = Mycobacterium tuberculosis, ATCC35838
[10] = Mycobacterium tuberculosis, ATCC35820
[11] = Mycobacterium tuberculosis, ATCC35822

| SMILES | MIC ([1]; MABA, rKM strain) | MIC differential versus H37Rv wild-type [2] | MIC ([3]; MABA, rRMP strain) | MIC ([4]; MABA, rSM strain) | MIC ([5]; MABA, rINH strain) | MIC differential versus H37Rv wild-type [6] | MIC [1, 8] | MIC [3, 9] | MIC [4, 10] | MIC [5, 11] | MIC [7] |
| --- | --- | --- | --- | --- | --- | --- | --- | --- | --- | --- | --- |
| CCCc1c2c([nH]c(=O)c1C)C(=O)c1[nH]c(=O)c(C)c(CCC)c1C2=O [Compound 3, diazaquinomycin A] | 0.06 mg/L (≈ 0.169 µM) | did not observe a significant differential in the MIC | 0.27 mg/L (≈ 0.762 µM) | 0.17 mg/L (≈ 0.48 µM) | 0.13 mg/L (≈ 0.367 µM) | did not observe a significant differential in the MIC | – | – | – | – | – |
| NNC(=O)c1ccncc1 [INH, isoniazid] | – | – | – | – | – | – | 0.03 mg/L (≈ 0.219 µM) | 0.02 mg/L (≈ 0.146 µM) | 0.02 mg/L (≈ 0.146 µM) | > 2 mg/L | 0.01 mg/L (≈ 0.0729 µM) |
| NC[C@H]1O[C@H](O[C@H]2[C@H](O)[C@@H](O[C@H]3O[C@H](CO)[C@@H](O)[C@H](N)[C@H]3O)[C@H](N)C[C@@H]2N)[C@H](O)[C@@H](O)[C@@H]1O [KM, kanamycin] | >2.00 mg/L | – | – | 0.95 mg/L (≈ 1.96 µM) | 0.95 mg/L (≈ 1.96 µM) | – | – | – | – | – | – |
| O=[N+]([O-])c1cn2c(n1)OC[C@@H](OCc1ccc(OC(F)(F)F)cc1)C2 [PA824] | – | – | – | – | – | – | 0.19 mg/L (≈ 0.529 µM) | 0.03 mg/L (≈ 0.0835 µM) | 0.11 mg/L (≈ 0.306 µM) | 0.03 mg/L (≈ 0.0835 µM) | – |
| CO[C@H]1/C=C/O[C@@]2(C)Oc3c(C)c(O)c4c(O)c(c(/C=N/N5CCN(C)CC5)c(O)c4c3C2=O)NC(=O)/C(C)=C\C=C\[C@H](C)[C@H](O)[C@@H](C)[C@@H](O)[C@@H](C)[C@H](OC(C)=O)[C@@H]1C [RMP, rifampicin] | – | – | – | – | – | – | < 0.01 mg/L | > 2 mg/L | 0.03 mg/L (≈ 0.0365 µM) | 0.01 mg/L (≈ 0.0122 µM) | < 0.01 mg/L |
| [H]/N=C(/N)N[C@H]1[C@H](O)[C@@H](O)[C@H](O[C@@H]2O[C@@H](C)[C@](O)(C=O)[C@H]2O[C@@H]2O[C@@H](CO)[C@H](O)[C@@H](O)[C@@H]2NC)[C@@H](N/C(N)=N\[H])[C@@H]1O [SM, streptomycin] | – | – | – | – | – | – | 1.2 mg/L (≈ 2.06 µM) | – | > 2 mg/L | 0.46 mg/L (≈ 0.791 µM) | – |
